Data taken from US12285403B2, “A2-73 as a therapeutic for insomnia, anxiety and agitation” (Anavex Life Sciences Corp., priority 2016, dated 2025).

Assays:
[1] = tested on: insomnia, anxiety or agitation; assay: Single-patient therapy Examples 1-10 (insomnia, anxiety, agitation); format: in vivo, human
Protocol: A person presents as suffering from maintenance insomnia for one year. They are started on oral A2-73 at 10 mg/day. […] They are currently maintained on 10 mg of A2-73 and is sleeping well. A person presents with anxiety of three years' duration. They are administered A2-73 at 20 mg oral per day every other day. […] They are maintained on this dosing schedule for 60 days. […] They are treated with 30 mg A2-73 oral daily for 30 days. […] They are currently maintained at that dosage and is not anxious. A person presents with MCI and reports maintenance insomnia for one year. They are started on oral A1-41 at 10 mg/day. […] They are currently maintained on 10 mg of A1-41 and is sleeping well. The patient is a person with diagnosed AD and reported anxiety of three years' duration. They are administered A19-144 at 20 mg oral per day every day for 90 days. […] They are chronically maintained on this dosing schedule. A person diagnosed with mild cognitive impairment presents as suffering from maintenance insomnia for one year. They are started on oral A2-73 at 50 mg/day. […] They are currently maintained on 50 mg of A2-73 daily and is sleeping well. A person diagnosed with Alzheimer's disease presents with insomnia/WASO and agitation and a systolic blood pressure of 145 mm Hg. They are started on oral A2-73 at 30 mg/day. […] They are also less agitated. Their results on all cognitive tests and HAM-D improve. They are currently maintained on 30 mg of A2-73 daily. A person diagnosed with Alzheimer's disease presents with insomnia/WASO and agitation. They are started on oral A2-73 at 100 mg/day. […] They are also less agitated. Their results on all cognitive tests and HAM-D improve. They are currently maintained on 100 mg of A2-73 every other day. A person diagnosed with Alzheimer's disease presents with insomnia/WASO and agitation. They are started on oral A19-144 at 50 mg/day. […] They are also less agitated. Their results on all cognitive tests and HAM-D improve. They are currently maintained on 50 mg of A19-144 daily. A person diagnosed with Alzheimer's disease presents with insomnia/WASO and agitation. They are started on oral A1-41 at 30 mg/day. […] They are also less agitated. Their results on all cognitive tests and HAM-D improve. They are currently maintained on 30 mg of A1-41 daily.

[2] = tested on: muscarinic acetylcholine receptors; settings: 'is believed to bind'; cited from earlier work
sigma-1 receptors = sigma-1 receptors (Homo sapiens, UniProt Q99720); settings: 'is believed to bind'; cited from earlier work
Chain of sigma-1 receptors (Q99720 whole entry): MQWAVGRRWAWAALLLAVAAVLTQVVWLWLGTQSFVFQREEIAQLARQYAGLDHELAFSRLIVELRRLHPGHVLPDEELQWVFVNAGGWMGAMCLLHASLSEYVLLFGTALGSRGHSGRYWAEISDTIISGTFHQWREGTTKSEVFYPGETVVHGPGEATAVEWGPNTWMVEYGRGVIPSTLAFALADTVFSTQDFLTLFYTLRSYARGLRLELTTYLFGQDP

[3] = Example 9: oral 50 mg/day, 30 days
[4] = Example 10: oral 30 mg/day, 60 days

| SMILES | Anxiety ([1]; Example 5: person with AD, 20 mg oral every day, after two days of dosing) | Agitation at follow up [1, 3] | Results on all cognitive tests and HAM-D [1, 3] | Sleep at follow up (insomnia/WASO) ([1]; Example 9: person with AD, oral 50 mg/day, 30 days) | Affinity for muscarinic acetylcholine receptors [2] | Affinity for sigma-1 receptors (sigma-1 receptors) | Sleep at follow up (maintenance insomnia) ([1]; Example 4: person with MCI, oral 10 mg/day, 30 days) | Agitation at follow up [1, 4] | Results on all cognitive tests and HAM-D [1, 4] | Sleep at follow up (insomnia/WASO) ([1]; Example 10: person with AD, oral 30 mg/day, 60 days) |
| --- | --- | --- | --- | --- | --- | --- | --- | --- | --- | --- |
| CNCC1CCOC1(c1ccccc1)c1ccccc1.Cl (stereo not shown) [A19-144, 1-(2,2-diphenyltetrahydrofuran-3-yl)-N-methylmethanamine hydrochloride] | Resolution of the anxiety | less agitated | improve | sleeping well through the night | low micromolar range | low micromolar range | – | – | – | – |
| CN(C)CC1COC(c2ccccc2)(c2ccccc2)C1.Cl (stereo not shown) [A1-41, tetrahydro-N,N-dimethyl-5,5-diphenyl-3-furanmethanamine hydrochloride] | – | – | – | – | – | – | sleeping well | less agitated | improve | sleeping well through the night |
